Test results reported in patent publication US20190060249A1 (priority 2017, published 2019).

Columns and labels:
ALDH3A1 = biological target: T1, ALDH3A1 (Homo sapiens, UniProt P30838); assay: ALDH fluorescence-coupled enzymatic assay, all-trans-retinal substrate, ALDH3A1; format: biochemical
T1 sequence (P30838 1-453): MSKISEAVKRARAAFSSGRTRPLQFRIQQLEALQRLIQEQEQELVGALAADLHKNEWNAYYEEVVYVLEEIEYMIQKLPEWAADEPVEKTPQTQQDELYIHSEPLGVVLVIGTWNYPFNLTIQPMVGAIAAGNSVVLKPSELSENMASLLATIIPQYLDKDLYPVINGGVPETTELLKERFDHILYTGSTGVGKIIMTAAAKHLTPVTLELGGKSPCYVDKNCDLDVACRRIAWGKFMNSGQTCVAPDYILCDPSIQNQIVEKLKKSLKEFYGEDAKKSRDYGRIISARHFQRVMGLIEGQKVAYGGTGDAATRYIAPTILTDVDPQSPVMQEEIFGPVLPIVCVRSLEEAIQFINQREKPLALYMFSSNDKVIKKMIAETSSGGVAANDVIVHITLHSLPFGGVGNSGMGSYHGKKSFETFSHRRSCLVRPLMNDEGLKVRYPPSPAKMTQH
Procedure: (§1) Assay conditions were modified from the original enzyme assay protocol above using 50 mM NaPPi buffer (pH 7.4), 2.5 mM NAD^+, 10 mM acetaldehyde or all-trans-retinal substrate with the addition of 1 U/mL diaphorase and 0.1 mM resazurin for the secondary reaction. Measurements were collected in triplicate at 25° C.

[1] = test system: SAS (human papillomavirus [HPV]-negative) head and neck squamous cell carcinoma cell line; assay: Xenograft study, SAS; format: in vivo, SCID mice; conditions: Alda-341 from one week ahead of irradiation, during and post; 30 Gy over 5 fractions
Procedure: Xenograft study: Six-week old SCID mice were purchased from the Jackson laboratory and five mice per group were used. SCC90 and SAS cells (2×10^6 cells/injection) were implanted into both flanks of each mouse. Alda-341 treated one week ahead of irradiation and continued during and post radiation. Total 30 Gy over 5 fractions in a week was delivered to the tumor with the rest of the body shielded. Tumor size was measured every 1-2 days. Tumor volume was calculated by the formula (π×length×width×height)/6.

[2] = test system: mouse primary salivary sphere lysate; assay: ALDH fluorescence-coupled enzymatic assay in salivary sphere lysate; format: biochemical; conditions: 10 mM acetaldehyde, 100 μM Alda-341
Procedure: as §1
All measurements were collected in triplicate, and error bars represent SEM. *=p<0.05; ***=p<0.001 (Student's t-test).

[3] = test system: mouse WT EpCAM+/CD24+-sorted cells; assay: Salisphere formation assay, mouse; format: cell-based; conditions: 25 μM Alda-341 over 7 days
Procedure: Salisphere formation assay: Cells isolated from mouse submandibular glands (SMG) were FACS sorted using cell surface markers EpCAM and CD24 as previously described and seeded on matrigel (BD Biosciences, BD356235). Cells were grown in DMEM/F12+GlutaMax (Gibco, 10565-018) media containing 10% FBS, 1× anti-anti, 1% N2 supplement (Gibco), 20 ng/mL […] (Sigma-Aldrich), 20 ng/mL fibroblast growth factor-2 (Sigma-Aldrich), 10 μg/mL insulin (Sigma-Aldrich), 1 μM dexamethasone (Sigma-Aldrich), 10 μM […] (Stem Cell Technologies). Spheres were passaged every 7 days by dissociating into single cells by incubating in 1 mg/mL dispase (BD Biosciences) for 20 minutes and 0.25% trypsin-EDTA for 20 minutes. Spheres were grown for 7 days and imaged with a BZ-X710 Keyence microscope using the z-stack function. Images were stitched together into a single image and analyzed using ImageJ (NIH) to quantify sphere number and area. Experiments were repeated at least 3 independent times.
Sphere number per well quantified by Image J (NIH). 6 replicates per group.

Compound: C=C(C)[C@H]1CC=C(C)CC1 [Alda-341, D-limonene]
- catalytic activity of all trans-retinal in ALDH3A1 (ALDH3A1): did not increase
- tumor growth and protection of tumors from radiation, SAS xenograft [1]: did not increase tumor growth or protect tumors from radiation
- enzymatic activity of the lysate from Aldh3a1(−/−) mice ([2]; 400 μg/mL Aldh3a1(−/−) salivary sphere lysate): did not increase
- increase of enzymatic activity of WT lysate ([2]; 400 μg/mL C57BL/6 WT salivary sphere lysate): approximately 30%
- increase in total salisphere number compared to vehicle control [3]: ~15%
